“Also recorded” adds a separate entry of the source.
How the values were obtained:
[1] = tested on: DN32.D3 type I NKT hybridoma; assay: In vitro stimulation of type I NKT hybridoma with lipid-loaded plate-coated CD1d monomers, IL-2 ELISA; type: cell-based, murine; details: 24 h; for DN32 activation (IL-2 production): 0.5 μg plate-coated CD1d monomers loaded with 4 μM sulfatide or analogues, 10 nM α-GalCer or β-GalCer; for level of activation (amount of IL-2 produced) of DN32.D3, compared with reference lipids: CD1d monomers loaded with 4 μM lipid
Procedure: The hybridoma cell line DN32.D3 created by Brutkiewicz et al. (R. R. Brutkiewicz et al., J. Experimental Medicine, 183: 1913-1919 (1995)) that express the TCR semi-invariant α-chain Vα14Jα18 associated with the Vβ8.2Jβ2.4 chain was used.
(§1) CD monomers were loaded as described above. Flat bottom 96 well plates were coated overnight with 0.5 μg of CD1d monomers loaded with 4 μM of sulfatide or sulfatide-analogues, 10 nM of α-GalCer or with 10 ng/ml of anti-CD3 antibody (Biolegend, San Diego, CA) dissolved in PBS. Plates were then washed in PBS and complete medium. 50×10^3 hybridoma cells in 200 μl of complete medium were plated in presence or not of anti-CD1d blocking antibody 20H2.
(§2) Cells were cultured for 24 h at 37° C., 5% CO2. The production of IL-2 was measured by ELISA from the culture supernatant according to the recommendations of the manufacturer.
(§3) Therefore, well-described type I and type II NKT hybridoma cell lines were used in this experiment. The type I NKT hybridoma DN32.D3 expresses the murine semi-invariant TCR Vα14Jα18 associated with the Vβ8.2/Jβ2.4 chain (Brutkiewicz et al.) and is specific for α-GalCer.

[2] = tested on: CT26 (colon cancer) cells; details: murine model of lung metastasis; Ambrosino et al. 2007; cited from earlier work
[3] = tested on: CT26 (colon cancer) cells; assay: CT26 lung metastasis model, lung nodule count; type: in vivo, BALB/c mice; details: for number of lung nodules: same day 33 nmol sulfatide or analogues or 500 pmol α-GalCer i.p., counted 8 to 12 days, compared to vehicle, FIG. 5
Procedure: 200 μg of sulfatide of sulfatide-analogues dry powder were resuspended with 40 μl of PBS-Tween20-0.05% and warm at 37° C. for 10 min. Then, 697 μl of DPBS were added to obtain a concentration of 300 μg/ml of lipid. Mice received an i.p injection of 100 μl of sulfatide or analogue mix that is equivalent to […] of lipid. A solution of 500 μM of α-GalCer in DPBS-tween20-0.05% was thawed and sonicated at 60° C. for 2 min and a solution at 10 μM was prepared in DPBS. Mice were injected i.p. with […] (100 μl) of α-GalCer solution.
The CT26 cell were cultured in tumor medium: RPMI 1640 (Life technologies) supplemented with 10% heat inactivated fetal calf serum, 2 mM L-Glutamine, penicillin, streptomycin, 10 mM HEPES, 1/100 vol non-essential amino acids, and 1 mM sodium pyruvate 1/1000 of β-mercaptoethanol. Cells were harvested at 80-85% confluence, detached from plastic with trypsin treatment and resuspended at 5×10^6 cell/ml in DPBS. Mice were injected i.v in the tail vein with 0.5×10^6 CT26 cells (100 μl). The same day, mice were injected i.p. with […] of sulfatide or sulfatide analogues, or 10 nmol of α-GalCer.
WT BALB/c mice were injected intravenously (i.v.) with 0.5×10^6 CT26 (colon cancer) and treated the same day with 33 nmol of sulfatide or sulfatide-analogues or 500 pmol of α-GalCer injected i.p. Lung nodules were counted 8 to 12 days after tumor inoculation according to the results in the monitoring mice. n=10 from 2 independent experiments. The results are shown graphically in FIG. 5.
WT BALB/c mice were inoculated i.v. with 5×10^5 CT26 cells and treated i.p. with 30, 5 or 0.5 nmol of sulfatide or C24:2. The number of nodules in the lung was determined 8 to 12 days after injection.
WT BALB/c mice were injected i.v. with 0.5×10^6 CT26 (colon cancer cells) and treated the same day with […] of sulfatide or C24:2 or 500 pmol of α-GalCer injected i.p. Mice were injected i.p with 200 μg/ml of anti-IFNγ or rat IgG isotype control on day 0, day 1, day 2, day 3, and day 5. Lung nodules were counted 8 to 12 days after tumor inoculation according to the results in the monitoring mice. The results are shown in FIG. 8A (Rat IgG) and FIG. 8B (anti-IFN-γ).

[4] = tested on: XV19 type II NKT hybridoma; assay: In vitro stimulation of type II NKT hybridoma with lipid-loaded plate-coated CD1d monomers, IL-2 ELISA; type: cell-based, mouse; details: 24 h, 0.5 μg plate-coated CD1d monomers loaded with 4 μM sulfatide or analogues, 10 nM α-GalCer or β-GalCer
Procedure: The hybridoma XV19 was created by Cardell, S. et al. (J. Experimental Medicine, 182: 993-1004 (1995)) and was provided by Susanna Cardell.
as §1, §2, §3

[5] = tested on: IFN-γ; assay: Serum cytokine production after i.p. lipid injection (multiplex analysis); type: in vivo, mice; details: bled 3, 6, 12 and 24 h, FIG. 7
Procedure: Mice were injected i.p. with lipids and bled 3, 6, 12 and 24 h after injection. The cytokine production in the serum was determined by multiplex analysis.

[6] = tested on: lung mononuclear cells; assay: Ex vivo stimulation of lung mononuclear cells with lipid-pulsed BMDC, IL-13 ELISA; type: cell-based, BALB/c mice; details: BMDC pulsed with 33 μM lipid, 4 days, FIG. 3; for production of IL-13: ELISA of culture supernatant
Procedure: For the preparation of lung mononuclear cells, lungs were perfused with warm Dulbecco's Phosphate-Buffered Saline (DPBS) (Life Technologies, Frederick, MD) from the heart right ventricle. Single cell suspension was prepared with a Lung Dissociation Kit (Miltenyi Biotec, San Diego, CA) according to the manufacturer's protocol. Lung mononuclear cells (LMNC) were then purified from the cell suspension by a 40%/80% gradient of Percoll (Sigma-Aldrich, St-Louis, MO).
BMDC were prepared by collecting bone marrow cells from femurs and tibias of BALB/c mice in complete medium. Cells were suspended at the concentration of 0.2×10^6/ml in complete medium supplemented with 20 ng/ml of GM-CSF (Peprotech, Rocky Hill, NJ) and 2×10^6 cells were plated per Petri dish (Corning, Tewksbury, MA). Fresh medium supplemented with 20 ng/ml GM-CSF was added at day 3 and refreshed at day 6. At day 8 the cells were harvested, washed in complete medium and suspended at 0.4×10^6/ml in complete medium supplemented with 10 ng/ml of GM-CSF and 1 μg/ml of LPS (Sigma-Aldrich). 4×10^6 cells were plated per Petri dish for 24 h.
200 μg of sulfatide of sulfatide-analogues dry powder was dissolved in 100 μl of DPBS containing 0.5% Tween20 (PBS-Tween) (Avantor performance materials). BMDCs were washed and put at the concentration of 1×10^7/ml and incubated 3 h at 37° C. in presence of 30 μg/ml of sulfatide or sulfatide-analogues or the same volume of PBS-Tween as vehicle control. After washing, 100×10^3 pulsed BMDCs were cultured with 0.5×10^6 lung mononuclear cells in complete medium in flat-bottom 96 well plates for 4 days at 37° C., 5% CO2. When indicated, 10 μg/ml of anti-CD1d antibody (20H2, Harlan, Indianapolis, IN) was added. Supernatants were harvested, and IL-13 production was determined by ELISA according to the recommendations of the manufacturer (eBioscience).
Lung mononuclear cells from WT BALB/c mice were stimulated for 4 days in presence of BMDC (bone marrow derived dendritic cells) pulsed with 33 μM of sulfatide, vehicle control, or 33 μM of the sulfatide analogues pC24:1, pC24:2, or C24:2 in presence or absence of the anti-CD1d blocking antibody 20H2 to confirm the dependency of the IL-13 production on CD1d. The production of IL-13 was measured by ELISA in the culture supernatant. The results are shown in FIG. 3 (n=4, duplicates from 2 independent experiments.

Molecule | DN32 activation (IL-2 production) [1] | development of lung nodules (previously demonstrated) [2] | number of lung nodules ([3]; 0.5×10^6 CT26 i.v.) | XV19 activation (IL-2 production) [4] | production of IFN-γ in the serum [5] | production of IL-13 [6] | production of IL-13 in presence of anti-CD1d blocking antibody 20H2 [6] | protection from tumor nodules with anti-IFN-γ versus rat IgG isotype control ([3]; 0.5×10^6 CT26 i.v., 30 μmol i.p., anti-IFNγ or rat IgG i.p. on days 0, 1, 2, 3, 5, FIGS. 8A-8B) | reduction of tumor nodules, dose study ([3]; 5×10^5 CT26 i.v., 30, 5 or 0.5 nmol i.p., result stated for 5 nmol, FIG. 6) | level of activation (amount of IL-2 produced) of DN32.D3, compared with reference lipids [1]
CCCCCCCCCCCCCCCCCCCCCCCCCC(=O)N[C@@H](CO[C@H]1O[C@H](CO)[C@H](O)[C@H](O)[C@H]1O)[C@H](O)[C@H](O)CCCCCCCCCCCCCC [α-GalCer, α-galactosylceramide, reference compound] | activated | abrogated it | inhibited their development | not |  |  |  |  |  | 
CCCCC/C=C\C/C=C\CCCCCCCCCCCCCC(=O)N[C@@H](CO[C@@H]1O[C@H](CO)[C@H](O)[C@H](OS(=O)(=O)O)[C@H]1O)[C@H](O)/C=C/CCCCCCCCCCCCC [C24:2, (2S,3R,4E)-1-(3-O-Sodiumsulfonyl-β-D-galactopyranosyloxy)-2-(N-15Z,18Z-tetracosadienoylamino)octadec-4-en-3-ol] | not DN32.D3; also recorded: not type I |  | significantly reduced the number of lung nodules; also recorded: induced a significant reduction of the number of lung nodules | activated only XV19; also recorded: activated only type II NKT cells | induced a high production of IFN-γ | induced a high production of IL-13 | abrogated | dependent on IFN-γ | efficient for the reduction of tumor nodules | 
CCCCC/C=C\C/C=C\CCCCCCCCCCCCCC(=O)N[C@@H](CO[C@@H]1O[C@H](CO)[C@H](O)[C@H](OS(=O)(=O)O)[C@H]1O)[C@H](O)[C@H](O)CCCCCCCCCCCCCC [pC24:2, (2S,3S,4R)-1-(3-O-Sodiumsulfonyl-β-D-galactopyranosyloxy)-2-(N-15Z,18Z-tetracosadienoylamino)octadecan-3,4-diol] | also activated DN32.D3 |  | did not have any effect | activated XV19 |  | induced a high production of IL-13 | abrogated |  |  | lower than that induced by α-GalCer and in the same range as the one induced by β-GalCer
CCCCCCCC/C=C\CCCCCCCCCCCCCC(=O)N[C@@H](CO[C@H]1O[C@H](CO)[C@H](O)[C@H](OS(=O)(=O)O)[C@H]1O)[C@H](O)/C=C/CCCCCCCCCCCCC [Sulfatide C24:1, 3-o-sulfo-α-galactosylceramide, d18:1/C24:1, reference compound] | not | increased the development of nodules | increased the number of lung nodules | activated |  |  |  |  |  | 
β-galactosylceramide [β-GalCer, reference compound] | activated |  |  | not |  |  |  |  |  | 
(2S,3S,4R)-1-(3-O-Sodiumsulfonyl-β-D-galactopyranosyloxy)-2-(N-15Z-tetracosenoylamino)octadecane-3,4-diol [pC24:1] | also activated DN32.D3 |  | did not have any effect | activated XV19 |  | induced a high production of IL-13 | abrogated |  |  | lower than that induced by α-GalCer and in the same range as the one induced by β-GalCer
